Values of other authors, collected in patent US20050214224A1, “Lipid formulations for spontaneous drug encapsulation” (Nektar Therapeutics, priority 2003, published 2005).

Conditions: hydrated state; lipid excipient

Row | hydrated liquid transition temperature [°C] | Structure (SMILES)
1 | 23.5 | CCCCCCCCCCCCCC(=O)OC[C@H](COP(=O)([O-])OCC[N+](C)(C)C)OC(=O)CCCCCCCCCCCCC [DMPC, dimyristoylphosphatidylcholine]
2 | 42 | CCCCCCCCCCCCCCCC(=O)OC[C@H](COP(=O)([O-])OCC[N+](C)(C)C)OC(=O)CCCCCCCCCCCCCCC [DPPC, dipalmitoylphosphatidylcholine]
